Laboratory results: PMC10793101 (Acta Pharmaceutica Sinica. B, 2023)

Experiments:
TFEB [1] = biological target: T1, TFEB (Homo sapiens, UniProt P19484); assay: GFP-TFEB nuclear translocation assay in qHTS format; format: cell-based, mouse
T1 sequence (P19484 1-476): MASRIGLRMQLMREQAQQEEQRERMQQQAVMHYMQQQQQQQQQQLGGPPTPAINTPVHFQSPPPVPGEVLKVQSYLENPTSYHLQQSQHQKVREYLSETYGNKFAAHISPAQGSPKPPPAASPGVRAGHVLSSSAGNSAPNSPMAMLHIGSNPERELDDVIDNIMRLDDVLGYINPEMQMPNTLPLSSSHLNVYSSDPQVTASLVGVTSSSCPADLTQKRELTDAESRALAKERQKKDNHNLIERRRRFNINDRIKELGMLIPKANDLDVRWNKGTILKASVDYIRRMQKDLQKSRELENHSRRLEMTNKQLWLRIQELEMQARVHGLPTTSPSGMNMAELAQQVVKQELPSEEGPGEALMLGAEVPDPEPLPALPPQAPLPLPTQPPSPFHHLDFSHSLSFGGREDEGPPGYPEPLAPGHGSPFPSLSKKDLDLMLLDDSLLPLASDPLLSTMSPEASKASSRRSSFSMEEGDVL

TFEB [2] = biological target: T1, TFEB; assay: GFP-TFEB nuclear translocation validation by confocal microscopy in AML12 cells; format: cell-based, mouse; details: stably expressing pEGFP-N1-TFEB AML12 cells, 24 h, vs control
TFEB [3] = assay: TFEB promoter-driven luciferase reporter assay in AML12 cells; format: cell-based, mouse; details: AML12 cells transfected with pGL3-TFEB-Luc, 24 h treatment
TFEB [4] = assay: qPCR of TFEB target genes in AML12 cells; format: cell-based, mouse; details: qPCR normalized to 18s
[5] = system: APAP-induced liver injury (AILI); assay: Protection against APAP overdose-induced liver injury in mice; format: in vivo, mouse
[6] = system: APAP-induced liver injury (AILI); details: cited from earlier work
[7] = salinomycin 5 mg/kg i.p. with APAP 500 mg/kg i.p., 6 and 24 h

Compound: CC[C@@H](C(=O)[C@@H](C)[C@@H](O)[C@H](C)[C@@H]1O[C@@H]([C@@H](CC)C(=O)O)CC[C@@H]1C)[C@H]1O[C@]2(C=C[C@@H](O)[C@]3(CC[C@@](C)([C@H]4CC[C@](O)(CC)[C@H](C)O4)O3)O2)[C@H](C)C[C@@H]1C [Salinomycin]
- EC50 (TFEB [1]): 2.64 µM
- nuclear translocation of TFEB (TFEB [2]): significantly increased
- TFEB promoter driven luciferase activity (TFEB [3]): significantly increased
- mRNA levels of TFEB target genes (Tfeb, Sqstm1, Ppargc1a, Lamp1, Vatp6v1d, Vatp6v1h, Pparα) (TFEB [4]): increased
- hepatic levels of APAP-protein adducts ([5]; APAP-treated mice with or without salinomycin): similar
- serum levels of APAP-adducts ([5]; APAP-treated mice with salinomycin): markedly decreased
- hepatic protein levels of CYP2E1 ([5]; immunoblotting, salinomycin 5 mg/kg i.p.): did not change
- hepatic TFEB levels ([5]; immunoblotting, salinomycin with APAP vs APAP): partially recovered
- levels of phosphorylated JNK ([5]; liver, co-treatment of salinomycin after APAP overdose): reduced
- areas of centrilobular necrosis (H&E and TUNEL staining) ([5]; salinomycin 5 mg/kg i.p. with APAP 500 mg/kg i.p.): almost completely abolished
- serum ALT levels [5, 7]: markedly decreased
- serum AST levels [5, 7]: markedly decreased

Compound: CC(=O)Nc1ccc(O)cc1 [APAP, Acetaminophen]
- levels of hepatic GSH (mouse livers; APAP 0.5, 2 and 6 h, recovered at 24 h): significantly decreased
- serum alanine aminotransferase (ALT) levels (mouse livers; APAP 500 mg/kg i.p., 6 or 24 h, vs saline): significantly increased
- mRNA levels of TFEB targeted genes in liver (mouse livers; APAP 500 mg/kg, 6 h, vs saline): significantly lower
- levels of hepatic CYP2E1 (mouse livers; APAP-treated WT mouse livers vs saline-treated WT): ~2 fold

Compound: CCC(=O)N1CCN(c2ccc(-n3c(=O)ccc4cnc5ccc(-c6cnc7ccccc7c6)cc5c43)cc2C(F)(F)F)CC1 [Torin1, Torin 1]
- nuclear translocation of TFEB (TFEB [2]): significantly increased

Compound: CCN(CC)CCNC(=O)c1c(C)[nH]c(/C=C2\C(=O)Nc3ccc(F)cc32)c1C [Sunitinib]
- effect on AILI at high dose ([6]; high dose): increases AILI
- effect on AILI at low dose ([6]; low dose): mild hepatoprotective effect

Compound: C[C@@H]1O[C@@H](OC[C@H]2O[C@@H](Oc3cc(O)c4c(c3)O[C@H](c3ccc(O)cc3)CC4=O)[C@H](O)[C@@H](O)[C@@H]2O)[C@H](O)[C@H](O)[C@H]1O [Narirutin]
- hepatic APAP-adducts and AILI ([6]; mice, by activating TFEB via enhanced calcineurin activity): decrease
